Assay results: publication PMC9594487 (Cancer chemotherapy and pharmacology, 2017)

Experiments:
[1] = background statement, no reference given, cited from earlier work
[2] = test system: patients with advanced solid tumors; assay: Phase I 3+3 dose escalation: DLT, MTD and recommended dose; details: in vivo, iv
[3] = single agent in a phase I trial; cited from earlier work

Cilengitide
route of clearance [1]: predominantly renally cleared
terminal half-life [1]: 3 to 5 h
minimum washout ([1]; estimated): 24 h
recommended dose of cilengitide for subsequent study (recommended phase II dose) [2]: 2000 mg
maximum tolerated dose (MTD), single agent [3]: not reached
